Assay results: patent US9980982B2, “HE4 based therapy for malignant disease” (Women & Infants Hospital of Rhode Island, priority 2011, dated 2018)
Oligonucleotides are written 5' to 3', each unit as a sugar letter and its base; * is a phosphorothioate linkage, no mark a phosphodiester; rarer units and linkages stand in square brackets, end groups in braces. Plain capitals give the bases only. Starred links: 1 amine or outer side, 2 acyl side, 3 side chain; linkers in the order of their positions; H or OH if unused. Positions of bridges follow the written chain, without caps; N, C: chain ends. Non-standard residues stand in square brackets, D forms with d. Residues, ends and D or L forms follow the SMILES beside them. Chains are numbered I, II in the order given. Actinocin(9to1) = Cc1c2oc3c(C)ccc(C(=O)[*:1])c3nc-2c(C(=O)[*:2])c(N)c1=O; NMeV = CN[C@H](C(=O)O)C(C)C; d = 2'-deoxy (DNA); Sar = CNCC(=O)O

Key:
[1] = tested on: ovarian cancer (SKOV-3) cells xenograft; assay: Antisense HE4 oligos in ovarian cancer (SKOV-3) xenografted animals; assay type: in vivo, nude mice; conditions: 7 mg/kg bwt, IP, 5 days/week; for effect on tumor progression / tumor burden: within 28 days, versus scrambled, sense oligos and vehicle
Procedure: Left: Effect of treatment of antisense HE4 oligos (“HE4 antisense 1” corresponds to SEQ ID NO:2 and “HE4 antisense 2” corresponds to SEQ ID NO:4; red and violet, respectively), sense HE4 oligos (green), vehicle, and scrambled sequences (7 mg/kg bwt, IP) 5 days/week on the tumor size in animals xenografted with ovarian cancer (SKOV-3) cells. Right: the weight of the animals treated with oligos progressed as the day progressed, and no toxicity was observed.
HE4 overexpression promoted ovarian cancer burden in animals (FIG. 24), and caused strong chemoresistance against cisplatin in animals (FIG. 26). Thus, a set of antisense oligos were designed to knockdown the expression levels of HE4 in animals xenografted with ovarian cancer (SKOV-3) cells. Treatment at 5 days/week with antisense HE4 phosphorothio oligos suppressed the tumor progression in animals compared to scrambled or sense HE4 oligos and vehicle treated control within 28 days of the treatment.

HE4 = HE4 levels in SKOV-3 cell lysates and media by sandwich ELISA; assay type: cell-based, Human; conditions: for effect on HE4 levels in SKOV-3: cytotoxic agents, 24 hrs, serum free DMEM, versus untreated controls; for effect on HE4 levels in media or cell-lysate of SKOV-3 cells: growth factors and cytokines, 6 hours
Procedure: (§1) Various agents were examined by RT-PCR or by a sandwich ELISA. […] HE4 levels in cell lysates and media were evaluated by a sandwich ELISA.
Cells were grown for 24 h in 100 mm cell culture dishes (Corning, New York, N.Y.), supernatant collected and lysates of washed and scraped cells prepared as described previously (Lange T S et al., 2007Chem Biol Drug Design, 70:302-10). Total protein of lysates was quantitated (BioRad protein estimation kit, Hercules, Calif.), and HE4 levels were determined using the HE4 EIA assay (Fujirebio Diagnostics, Malvern, Pa.), a solid-phase, non-competitive immunoassay using two mouse monoclonal antibodies, directed against two epitopes in the C-WFDC domain. Calibration curves were used to measure HE4 concentrations in both cell lysates and culture media allowing for the calculation of production and secretion of HE4 in pmol/g total cellular protein.
FIG. 15 is a bar chart showing that treatment with growth factors and cytokines affect the HE4 levels in ovarian cancer cells. SKOV-3 cells (1 million each) were seeded in 100 mm dishes and incubated overnight. The cells were treated with an array of factors (IL-6, Insulin, TNFa, EGF) and incubated for another 6 hours. The media was collected and cells were lysed using the cell lysis buffer. The HE4 content in the media or in the cell-lysate was examined by a HE4 sandwich ELISA kit.

[2] = tested on: HE4 overexpressing SKOV-3 clones HE4C1, -C3, -C7; assay: MTS cell viability assay, HE4 overexpressing SKOV-3 clones; assay type: cell-based, Human; conditions: 24 h; for viability at 20 µM: Homo sapiens, SK-OV-3, 24 h, 20 μM doxorubicin, untreated = 100%
Procedure: An HE4 overexpressing vector for stable expression was engineered by inserting a coding sequence of human WAP four-disulfide core domain 2 (WFDC2) cDNA into a multiple cloning site of an eukaryotic expression vector, pCMV6-entry (Origene, Rockville, Md.). Transfection of the constructs in SKOV-3 cells was performed using Lipofectamine 2000 (Invitrogen, Carlsbad, Calif.) according to the manufacturer's instructions. Stably transfected cells were selected by resistance to G-418 (500 μg/ml) (Research Products International, Mount Prospect, Ill.), applied 48 h after transfection and continued during cell culture. G-418 resistant cells were resuspended (density 5 cells/ml) in complete medium/G-418 and seeded as 200 μl/well on a 96 well cell culture plate (Corning, New York, N.Y.). Cells growing from single colonies (cloned; stable transfection) were isolated.
(§2) Cell growth and viability of cell lines (complete medium, 24 h incubation) was determined by the CellTiter 96® AQueous One Solution Assay (Promega Corp, Madison, Wis.) following the manufacturer's recommendations with modifications (Lange T S et al., 2008 PLOS One, 3(5):e2303). Experiments are expressed as the mean of triplicate determinations (X±SD) of a representative experiment in OD (cell growth) or % of absorbance by drug-treated versus untreated cells [=100%] (cell viability). Cisplatin (CDDP), paclitaxel, doxorubicin and camptothecin (CPT) were purchased from (Sigma Aldrich, St. Louis, Mo.).
(§3) To analyze the potential biological relevance of elevated HE4 production for ovarian cancer cells the efficacy of commonly used anticancer drugs was examined in a viability assay (FIG. 5). SKOV-3 clones or parental cells were treated with cisplatin, paclitaxel, doxorubicin, or camptothecin for 24 h in various concentrations as indicated and the cytotoxicity evaluated.

SKOV-3 cells = assay: MTS cell viability assay, parental/wild-type SKOV-3 cells; assay type: cell-based, Human; conditions: Homo sapiens, SK-OV-3; wild-type SKOV-3; 20 μM doxorubicin, 24 h; untreated = 100%
Procedure: as §2, §3

HE4 mRNA = HE4 mRNA expression in SKOV-3 cells by RT-PCR; assay type: cell-based, Human; conditions: stimulation in serum free DMEM (TNF 10 nM, Insulin 100 nM, EGF 10 nM, IL-6 10 nM)
Procedure: as §1
Total RNA isolation from cells was carried out using TRIzol and Reverse transcription on 3 μg RNA using SuperScript III transcriptase according to the manufacturers protocol (Invitrogen, Carlsbad, Calif.) followed by 30 cycles of PCR using the following primer pairs: HE4 sense, 5′-AGG AGC AGA GAA GAC TGG-3′ (SEQ ID NO: 27); HE4 antisense, 5′-TTA TCA TTG GGC AGA GAG-3′ (SEQ ID NO: 28); GAPDH sense, 5′-AAT CCC ATC ACC ATC TTC C-3′ (SEQ ID NO: 29); GAPDH antisense, 5′-GTCCTTCCACGATACCAAAG-3′ (SEQ ID NO: 30). Cycle conditions: 94° C./1 min; 55° C./2 min, 72° C./2 min. PCR products were separated on 2% agarose gels containing 0.4 mg/ml of ethidium bromide.

5′ A*C*A*C*C*T*T*C*C*C*A*C*A*G*C*C*A*T*T 3′ (DNA ACACCTTCCCACAGCCATT; DNA, all phosphorothioate, methylation of C not given here) [SEQ ID NO:5]
effect on tumor progression / tumor burden [1]: showed tumor inhibitory activity

5′ A*C*A*C*C*T*T*C*C*C*A*C*A*G*C*C*A*T*T*G 3′ [SEQ ID NO:4]
toxicity in animals (body weight) [1]: did not cause any toxicity | effect on tumor progression / tumor burden [1]: strong reduction in tumor burden | effect on tumor progression / tumor burden ([1]; listed as HE4 antisense 2): suppressed the progression of ovarian tumor growth

5′ G*A*C*A*C*C*T*T*C*C*C*A*C*A*G*C*C*A*T 3′ (DNA GACACCTTCCCACAGCCAT; DNA, all phosphorothioate, methylation of C not given here) [SEQ ID NO:3]
effect on tumor progression / tumor burden [1]: showed tumor inhibitory activity

5′ G*A*C*A*C*C*T*T*C*C*C*A*C*A*G*C*C*A*T*T 3′ (DNA dG*dA*dC*dA*dC*dC*dT*dT*dC*dC*dC*dA*dC*dA*dG*dC*dC*dA*dT*dT; antisense) [SEQ ID NO:1]
effect on tumor progression / tumor burden [1]: showed tumor inhibitory activity

5′ G*A*C*A*C*C*T*T*C*C*C*A*C*A*G*C*C*A*T*T*G 3′ [SEQ ID NO:2]
toxicity in animals (body weight) [1]: did not cause any toxicity | effect on tumor progression / tumor burden ([1]; listed as HE4 antisense 1): suppressed the progression of ovarian tumor growth

Cc1c2oc3c(C)ccc(C(=O)N[C@@H]4C(=O)N[C@H](C(C)C)C(=O)N5CCC[C@H]5C(=O)N(C)CC(=O)N(C)[C@@H](C(C)C)C(=O)O[C@@H]4C)c3nc-2c(C(=O)N[C@@H]2C(=O)N[C@H](C(C)C)C(=O)N3CCC[C@H]3C(=O)N(C)CC(=O)N(C)[C@@H](C(C)C)C(=O)O[C@@H]2C)c(N)c1=O [Actinomycin-D] (I: T[dV]P[Sar][NMeV] / II: T[dV]P[Sar][NMeV]; ester I:1-I:C, II:1-II:C; linker I:N-II:N via Actinocin(9to1))
effect on HE4 levels in SKOV-3 (HE4): suppressed HE4 levels

C=C1/C(=C\C=C2/CCC[C@]3(C)[C@@H]([C@H](C)CCCC(C)(C)O)CC[C@@H]23)C[C@@H](O)C[C@@H]1O [Calcitriol]
effect on HE4 levels in SKOV-3 (HE4): upregulated HE4 expression

COc1cc2ncnc(Nc3ccc(F)c(Cl)c3)c2cc1OCCCN1CCOCC1 [Iressa]
effect on HE4 levels in SKOV-3 (HE4): suppressed HE4 levels

CC[C@@]1(O)C(=O)OCc2c1cc1n(c2=O)Cc2cc3ccccc3nc2-1 [camptothecin]
maximum difference in viability between wild-type cells and HE4C1, -3, -7 ([2]; camptothecin, at 1.2 μM): ≤ 21%

COc1cccc2c1C(=O)c1c(O)c3c(c(O)c1C2=O)C[C@@](O)(C(=O)CO)C[C@@H]3O[C@H]1C[C@H](N)[C@H](O)[C@H](C)O1 [doxorubicin]
viability at 20 µM (SKOV-3 cells): 58% | viability at 20 µM ([2]; HE4C1): 70% | viability at 20 µM ([2]; HE4C3): 84% | viability at 20 µM ([2]; HE4C7): 91%

EGF: epidermal growth factor (NSDSECPLSHDGYCLHDGVCMYIEALDKYACNCVVGYIGERCQYRDLKWWELR; UniProt P01133 971-1023, looked up)
effect on mRNA expression of HE4 in SKOV-3 cells (HE4 mRNA): did not affect mRNA expression of HE4 | effect on HE4 levels in media or cell-lysate of SKOV-3 cells (HE4): elevate HE4 levels

IL-6: cytokine
effect on mRNA expression of HE4 in SKOV-3 cells (HE4 mRNA): did not affect mRNA expression of HE4 | effect on HE4 levels in media or cell-lysate of SKOV-3 cells (HE4): suppresses the HE4 levels

Insulin: growth factor
effect on mRNA expression of HE4 in SKOV-3 cells (HE4 mRNA): did not affect mRNA expression of HE4 | effect on HE4 levels in media or cell-lysate of SKOV-3 cells (HE4): elevate HE4 levels

TNF-a
effect on mRNA expression of HE4 in SKOV-3 cells (HE4 mRNA): did not affect mRNA expression of HE4 | effect on HE4 levels in media or cell-lysate of SKOV-3 cells (HE4): does not alter HE4 levels

Tunicamycin
effect on HE4 levels in SKOV-3 (HE4): suppressed HE4 levels
